Data on eleven molecules can be found in ChEMBL document CHEMBL5131375, “Recent Developments in the Use of Kinase Inhibitors for Management of Viral Infections” (J Med Chem, 2022).

Data set [1] relates to Enterovirus A71. Put plainly: Antiviral activity against enterovirus A71 assessed as reduction in viral mRNA level at 2 uM relative to control. It counts as functional. Details: scale not given: the % may be the effect or the level left.
Data set [2] deals with Enterovirus A71. Put plainly: Antiviral activity against enterovirus A71 infected in human RD cells assessed as decrease in viral titer by inhibition of Pim1. The class given is functional. Details: scale not given: the % may be the effect or the level left.
Data set [3] relates to Enterovirus A71. Put plainly: Antiviral activity against enterovirus A71 infected in human HeLa cells assessed as decrease in viral titer by inhibition of Pim1. The class given is functional. Details: scale not given: the % may be the effect or the level left.
In data set [4] the test system is Enterovirus A71. In words: Antiviral activity against enterovirus A71 infected in human HeLa cells assessed as decrease in viral mRNA level at 2 uM. It counts as functional. Set-up: scale not given: the % may be the effect or the level left.
The nature of data set [5]: in vitro. The settings on record: human, hek-293t.
Data set [6] in a line: in vitro. The settings on record: human.
For data set [7], the system named is Enterovirus A71. In words: Antiviral activity against enterovirus A71 infected in human RD cells assessed as decrease in viral mRNA level at 2 uM. It counts as functional. Details: scale not given: the % may be the effect or the level left.
The subject of data set [8] is dengue virus type 1. Put plainly: microbe, parasite or virus in culture. The class given is functional, organism-based.
Data set [9] has as its system dengue virus type 3. Put plainly: microbe, parasite or virus in culture. The class given is functional, organism-based.
In data set [10] the test system is dengue virus type 4. Put plainly: microbe, parasite or virus in culture. The class given is functional, organism-based.
Data set [11] relates to dengue virus type 2. Put plainly: microbe, parasite or virus in culture. The class given is functional, organism-based.
A short description of data set [12]: in vitro. The settings on record: human, Huh-7.5.1 cells.
Data set [13] is described as follows: Cytotoxicity against 24ST1NLESG cells (unknown origin). The class given is toxicity, cell-based.
Data set [14] deals with Human alphaherpesvirus 1. In words: Antiviral activity against HSV-1-induced necrosis. The class given is functional, organism-based.
The test system of data set [15] is Human alphaherpesvirus 1. In words: Antiviral activity against HSV-1 KOS strain infected in 1 hr pretreated mouse L929 cells assessed as cell viability by cell titre-glo luminescent kit method. It counts as functional, organism-based. The settings on record: Human alphaherpesvirus 1, KOS.
For data set [16], the system named is Human alphaherpesvirus 1. In words: In vivo antiviral activity against HSV-1 infected in organism (unknown origin) assessed as suppression of skin lesions at 10% ointment treatment. The class given is functional.
Data set [17] has as its target Cyclin-dependent kinase 9 (Homo sapiens, UniProt P50750). Put plainly: Inhibition of CDK9 (unknown origin) incubated for 2 hrs by measuring remaining ATP.
Data set [18] concerns Human alphaherpesvirus 1. In words: microbe, parasite or virus in culture. It counts as functional, organism-based.
Data set [19] relates to Hepatitis B virus. In words: microbe, parasite or virus in culture. It counts as functional, organism-based. The settings on record: Hepatitis B virus.
Data set [20] is described as follows: Cytotoxicity against human HepG2 cells. The class given is toxicity, cell-based.
The test system of data set [21] is Hepatitis B virus. In words: Antiviral activity against HBV infected in human HepG2-hNTCP cells. The class given is functional, organism-based.
In data set [22] the test system is Human alphaherpesvirus 1. In words: Antiviral activity against ACV-resistant HSV-1 in African green monkey Vero cells measured after 2 days. The class given is functional, organism-based. The settings on record: Human alphaherpesvirus 1, Vero, 48 h.
Data set [23] in a line: Cytotoxicity against human MCF7 cells. It counts as toxicity, cell-based.
In data set [24] the test system is Zaire ebolavirus. In words: microbe, parasite or virus in culture. The class given is functional, organism-based. The settings on record: dose 5 µM.
The nature of data set [25]: Cytotoxicity against human PC-3 cells. It counts as toxicity, cell-based.
Data set [26] in a line: in vitro. The settings on record: human, Huh-7 cells.
The subject of data set [27] is Chikungunya virus. Put plainly: microbe, parasite or virus in culture. The class given is functional, organism-based.
The nature of data set [28]: Cytotoxicity against human A549 cells. The class given is toxicity, cell-based.
A short description of data set [29]: in vitro. The settings on record: chlorocebus sabaeus, Vero cells.
The test system of data set [30] is Junin virus. Put plainly: microbe, parasite or virus in culture. The class given is functional, organism-based. The settings on record: Mammarenavirus juninense.
Data set [31] can be described thus: in vitro. The settings on record: human, bxpc-3.
In data set [32] the test system is Influenza A virus. Put plainly: microbe, parasite or virus in culture. It counts as functional, organism-based.
The nature of data set [33]: Toxicity in mouse infected with Influenza A virus assessed as lethality at 75 mg/kg, po. The settings on record: in vivo. The class given is organism-based.
Data set [34] concerns Influenza A virus. Put plainly: microbe, parasite or virus in culture. The class given is functional, organism-based. This is another data set of the same source.
The test system of data set [35] is Marburgvirus. In words: microbe, parasite or virus in culture. The class given is functional, organism-based. The settings on record: Orthomarburgvirus.
The test system of data set [36] is Ebolavirus. Put plainly: microbe, parasite or virus in culture. It counts as functional, organism-based. The settings on record: Orthoebolavirus, MDM.
Data set [37] in a line: in vitro. The settings on record: chlorocebus sabaeus, Vero E6 cells.
For data set [38], the system named is SARS-CoV-2. Put plainly: Antiviral activity against SARS-Cov-2 infected in 1 hr pretreated African green monkey Vero E6 cells assessed as inhibition of viral replication. The class given is functional, organism-based. The settings on record: Severe acute respiratory syndrome coronavirus 2, Vero C1008.
Data set [39] concerns SARS-CoV-2. Put plainly: microbe, parasite or virus in culture. The settings on record: Severe acute respiratory syndrome coronavirus 2. The class given is functional, organism-based.
Data set [40] relates to Marburgvirus. Put plainly: microbe, parasite or virus in culture. The class given is functional, organism-based. The settings on record: Orthomarburgvirus, MDM.
Data set [41] concerns Ebolavirus. Put plainly: microbe, parasite or virus in culture. The class given is functional, organism-based. The settings on record: Orthoebolavirus.
Data set [42] concerns SARS-CoV-2. In words: Antiviral activity against SARS-CoV-2 assessed as inhibition of viral replication. The class given is functional, organism-based. The settings on record: Severe acute respiratory syndrome coronavirus 2.
Data set [43] in a line: Cytotoxicity against liver spheroids (unknown origin). It counts as toxicity, tissue-based.
Data set [44] concerns SARS-CoV-2. In words: Antiviral activity against SARS-CoV-2 assessed as reduction of viral load at 400 nM relative to control. Details: scale not given: the % may be the effect or the level left. It counts as functional, Severe acute respiratory syndrome coronavirus 2.
Data set [45] concerns SARS-CoV-2. Put plainly: Antiviral activity against SARS-CoV-2 assessed as reduction of viral load at 400 to 800 nM. Details: scale not given: the % may be the effect or the level left. The settings on record: dose 400-800 nM. The class given is functional, Severe acute respiratory syndrome coronavirus 2.
A short description of data set [46]: Cytotoxicity against osteoblast cells (unknown origin). The class given is toxicity, cell-based, Calvarial osteoblast.
Data set [47] has as its target AP2-associated protein kinase 1 (Homo sapiens, UniProt Q2M2I8).
The test system of data set [48] is Zika virus. Put plainly: Antiviral activity against ZIKV at 1 uM relative to control. The class given is functional.
Data set [49] can be described thus: in vitro. The settings on record: human, sertoli cell.

Chain of Cyclin-dependent kinase 9 (P50750 whole entry): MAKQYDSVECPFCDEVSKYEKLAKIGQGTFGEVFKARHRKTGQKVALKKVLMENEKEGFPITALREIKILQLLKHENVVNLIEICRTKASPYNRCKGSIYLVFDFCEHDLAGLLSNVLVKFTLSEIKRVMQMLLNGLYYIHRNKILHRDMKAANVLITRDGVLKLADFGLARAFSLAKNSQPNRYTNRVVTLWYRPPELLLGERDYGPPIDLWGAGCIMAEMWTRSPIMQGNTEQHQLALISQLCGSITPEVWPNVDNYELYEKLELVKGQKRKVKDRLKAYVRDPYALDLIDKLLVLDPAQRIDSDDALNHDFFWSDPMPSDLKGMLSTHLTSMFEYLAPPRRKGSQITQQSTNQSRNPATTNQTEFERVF
Chain of AP2-associated protein kinase 1 (Q2M2I8 whole entry): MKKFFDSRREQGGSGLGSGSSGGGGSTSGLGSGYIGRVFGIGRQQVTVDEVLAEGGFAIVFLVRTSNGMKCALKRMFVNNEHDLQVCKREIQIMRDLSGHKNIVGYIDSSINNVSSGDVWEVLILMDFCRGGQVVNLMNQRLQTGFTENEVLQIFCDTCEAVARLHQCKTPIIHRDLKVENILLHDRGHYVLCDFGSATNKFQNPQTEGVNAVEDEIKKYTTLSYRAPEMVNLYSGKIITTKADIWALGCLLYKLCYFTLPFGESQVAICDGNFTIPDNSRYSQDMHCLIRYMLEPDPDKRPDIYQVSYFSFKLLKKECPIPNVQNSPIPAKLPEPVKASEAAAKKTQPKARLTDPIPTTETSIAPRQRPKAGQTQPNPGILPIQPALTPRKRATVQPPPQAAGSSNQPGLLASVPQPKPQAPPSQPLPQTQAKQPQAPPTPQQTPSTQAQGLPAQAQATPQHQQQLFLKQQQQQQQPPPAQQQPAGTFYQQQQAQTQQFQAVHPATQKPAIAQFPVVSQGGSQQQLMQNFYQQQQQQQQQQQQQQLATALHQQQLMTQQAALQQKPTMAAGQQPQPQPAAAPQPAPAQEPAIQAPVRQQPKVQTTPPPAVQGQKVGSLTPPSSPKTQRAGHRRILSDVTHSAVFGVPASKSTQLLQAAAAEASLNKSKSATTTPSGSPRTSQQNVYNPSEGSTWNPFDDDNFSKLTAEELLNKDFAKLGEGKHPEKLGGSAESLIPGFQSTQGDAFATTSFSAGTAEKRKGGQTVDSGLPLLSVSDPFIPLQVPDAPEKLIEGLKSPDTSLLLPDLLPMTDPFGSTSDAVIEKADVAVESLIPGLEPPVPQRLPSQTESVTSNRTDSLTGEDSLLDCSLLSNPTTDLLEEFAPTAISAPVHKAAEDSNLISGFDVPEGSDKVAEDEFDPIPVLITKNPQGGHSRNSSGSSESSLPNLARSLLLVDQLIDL

Take `CN1CCCN(C(=O)c2cccc(-c3ccc(/C=C4/C(=O)Nc5ccc(Cl)cc54)o3)c2)CC1`: the Activity was 70% in [1]; 50% in [2]; 50% in data set [3]; 70% in [4]; 70% in [7]. Moreover, the CC50 in data set [5] and in [6] (hela) was greater than 8000 nM each time.
For the molecule `COc1ccc(CC(N)c2csc(Nc3ncccn3)n2)cc1` (stereo not given), the EC50 worked out at 900 nM in [8], 2600 nM in data set [9], 5000 nM in data set [10] and 7600 nM in data set [11]. In [12], this molecule returned a CC50 greater than 100000 nM.
On to `O=C1NCCc2[nH]c(-c3ccncc3)cc21`, for which, in data set [13], the CC50 amounted to 1000 nM. Moreover, the IC50 in data set [14] and in [15] was 1860 nM in each case.
As to `Fc1ccc(N2CCCCC2)c(NC(=S)c2ccncc2)c1`, the Activity in [16] is given as 100%. The IC50 stood at 5800 nM in [17], 330 nM in data set [21] and 690 nM in data set [22]. For the same molecule, the EC50 was 690 nM in data set [18] and 330 nM in [19]. Moreover, the CC50 in [20] is greater than 50000 nM; in [6] (HeLa cells) it was greater than 10000 nM.
`Ic1cccc(/C=N/Nc2nc(N3CCOCC3)nc(N(c3ccccc3)c3ccccc3)n2)c1`: the CC50 in data set [23] and in [25] was greater than 10000 nM throughout. In addition, in data set [24], the inhibition at 5 µM is 100%.
The molecule `CC(C)c1ccc(NC(=O)c2csc(C(O)C(C)C)n2)cc1` (stereo not given) yielded a CC50 in [26] greater than 50000 nM. The EC50 in data set [27] came to 2200 nM.
Consider `C/C(O)=C(/C#N)C(=O)Nc1ccc(C(F)(F)F)cc1`, for which the CC50 in data set [28] is greater than 100000 nM; in data set [29], 223000 nM. In data set [30], this molecule came in with an EC50 of 16000 nM.
Take `O=C(NCc1ccncc1)C12CC3CC(C1)CC(c1ccc(Cl)cc1)(C3)C2` [ABC-294640]: the CC50 in data set [31] was 28500 nM. Besides, the EC50 in data set [32] and in data set [34] was 1780 nM each time. Moreover, the Activity result in data set [33] is on record as “Non-Toxic”.
Consider `Cc1cccc(/C=N/Nc2cc(N3CCOCC3)nc(OCCc3ccccn3)n2)c1` [APILIMOD], for which the EC50 in data set [35] amounted to 10 nM; in [38], 23 nM; in data set [39], 23 nM; in data set [41], 10 nM; in [42], 23 nM. Further, the IC50 in data set [36] and in data set [40] was 10 nM in each case. The molecule also yielded a CC50 in data set [37] greater than 1000 nM.
On to `CCS(=O)(=O)N1CC(CC#N)(n2cc(-c3ncnc4[nH]ccc34)cn2)C1` [BARICITINIB], for which the CC50 in data set [43] was greater than 5000 nM; in [46], greater than 50000 nM. Besides, the Activity in [44] and in data set [45] was 30% in each case. Besides, the IC50 in data set [47] is 17 nM.
In [48], `Nc1nc(Nc2ccc3c(c2)CC[C@@H](N2CCCC2)CC3)nn1-c1cc2c(nn1)-c1ccccc1CCC2` [BEMCENTINIB] gave an Activity of 75%. In addition, the CC50 in data set [49] was greater than 10000 nM.

As a reminder, the EC50 is the concentration giving half of the maximal effect. The term IC50 denotes the concentration that inhibits the measured activity by half. For orientation: inhibition means the change of the read-out against control, counted positive when it falls.
